Molecules are shown by their SMILES.

Data set [1] can be described thus: Dissociation constant, pKa of the compound. It is filed as physicochemical.
Another data set concerns Plasma. Particulars: human.
The nature of the next data set: clinical. The following applies: human, in vivo.

Description for Plasma: Fraction unbound in human plasma

On to `CC1(C)S[C@@H]2[C@H](NC(=O)[C@H](N)c3ccc(O)cc3)C(=O)N2[C@H]1C(=O)O` [AMOXICILLIN], for which the pKa in data set [1] worked out at 2.4. Also, in the data set with Plasma, the fu is reported as 0.82. For the same compound, the Vd in “clinical” was 0.85 L/kg.
In data set [1], `CCCCN1CCCCC1C(=O)Nc1c(C)cccc1C` (configuration not stated) [BUPIVACAINE] showed a pKa of 8.16. In the data set with Plasma, this compound displayed a fu of 0.044. The compound also registered a Vd in “clinical” of 0.7 L/kg.
Regarding `CO/N=C(\C(=O)N[C@@H]1C(=O)N2C(C(=O)O)=C(COC(C)=O)CS[C@H]12)c1csc(N)n1` [CEFOTAXIME], the pKa in data set [1] worked out at 3.75. In the data set on Plasma, this compound gave a fu of 0.6. Also, the distribution volume (Vd) in the data set “clinical” stood at 0.28 L/kg.
For the compound `O=C(O)c1cc(=O)c2c(OCC(O)COc3cccc4oc(C(=O)O)cc(=O)c34)cccc2o1` [CROMOLYN], the pKa in data set [1] was 1.9. In addition, the fu in the data set on Plasma amounted to 0. The compound further showed a Vd in “clinical” of 0.32 L/kg.
Compound `CCn1cc(C(=O)O)c(=O)c2cc(F)c(N3CCNCC3)nc21` [ENOXACIN] came in with a pKa in data set [1] of 6.3. The fu with Plasma came out at 0.485. In the data set “clinical”, the volume of distribution (Vd) amounted to 1.96 L/kg.
For `COC(=O)CCc1ccc(OCC(O)CNC(C)C)cc1` (configuration not stated) [ESMOLOL], the pKa in data set [1] worked out at […]. Moreover, the fu in the data set on Plasma stood at 0.45. In the data set “clinical”, the Vd is 1.9 L/kg.
In the case of `COc1c(N2CCNC(C)C2)c(F)cc2c(=O)c(C(=O)O)cn(C3CC3)c12` (configuration not stated) [GATIFLOXACIN], the pKa in data set [1] stood at 6. In addition, in the data set “clinical”, the volume of distribution (Vd) turned out to be 1.75 L/kg.
`Cc1ccc(S(=O)(=O)NC(=O)NN2CC3CCCC3C2)cc1` (configuration not stated) [GLICLAZIDE] yielded a pKa in data set [1] of 5.98. The compound also came in with a fu with Plasma of 0.09. In the data set “clinical”, the Vd amounted to 0.36 L/kg.
In data set [1], `COc1ccc2c(c1)C(=O)N(CCc1ccc(S(=O)(=O)NC(=O)NC3CCCCC3)cc1)C(=O)C2(C)C` [GLIQUIDONE] gave a pKa of 5. The fu in the data set with Plasma stood at 0.01. The Vd in the data set “clinical” worked out at 0.16 L/kg.
`CCn1cc(C(=O)O)c(=O)c2cc(F)c(N3CCNC(C)C3)c(F)c21` (configuration not stated) [LOMEFLOXACIN]: the pKa in data set [1] was 5.99. Besides, the fu in the data set on Plasma is listed as 0.89. For the same compound, the Vd in the data set “clinical” amounted to 2.3 L/kg.
`Cc1ccccc1N1C(=O)c2cc(S(N)(=O)=O)c(Cl)cc2NC1C` (configuration not stated) [METOLAZONE] displayed a pKa in data set [1] of 9.72. In the data set “clinical”, this compound returned a distribution volume (Vd) of 1.61 L/kg.
With `Nc1cc(N2CCCCC2)nc(N)[n+]1[O-]` [MINOXIDIL], the pKa in data set [1] was 4.6. This compound also displayed a fu with Plasma of 1. Moreover, the Vd in the data set “clinical” was found to be 3 L/kg.
Turning to `CN1CCOC(c2ccccc2)c2ccccc2C1` (configuration not stated) [NEFOPAM], the pKa in data set [1] was determined as 9.3. For the same compound, the fu with Plasma turned out to be 0.27. The distribution volume (Vd) in “clinical” turned out to be 7.23 L/kg.
The compound `CCn1cc(C(=O)O)c(=O)c2cc(F)c(N3CCNCC3)cc21` [NORFLOXACIN] showed a pKa in data set [1] of 6.3. In the data set with Plasma, this compound registered a fu of 0.85. Further, in the data set “clinical”, the Vd was found to be 2.8 L/kg.
Consider `CCCC(C)C1(CC)C(=O)NC(=O)NC1=O` (configuration not stated) [PENTOBARBITAL], for which, in data set [1], the pKa was 8.1. This compound also registered a fu with Plasma of 0.45. Moreover, in “clinical”, the Vd is 1 L/kg.
In the case of `CC[C@H](C)C(=O)O[C@H]1C[C@H](O)C=C2C=C[C@H](C)[C@H](CC[C@@H](O)C[C@@H](O)CC(=O)O)[C@H]21` [PRAVASTATIN], the pKa in data set [1] came out at 4.7. Further, the fu in the data set on Plasma stood at 0.55.
The compound `CCCNC(C)C(=O)Nc1ccccc1C` (configuration not stated) [PRILOCAINE] yielded a pKa in data set [1] of 7.9. The fu with Plasma was 0.715.
In data set [1], `CCCOC(C(=O)OC1CCN(C)CC1)(c1ccccc1)c1ccccc1` [PROPIVERINE] displayed a pKa of 6.65. Further, the fu in the data set on Plasma is on record as 0.075. In addition, in “clinical”, the distribution volume (Vd) is 1.9 L/kg.
Compound `COc1cccc(C2(O)CCCCC2CN(C)C)c1` (configuration not stated) [TRAMADOL] had a pKa in data set [1] of 8.3. In the data set on Plasma, this compound yielded a fu of 0.96.
